In patent publication US20260256751A1, “COMBINATION OF BETA-2-ADRENERGIC RECEPTOR AGONISTS AND GLP-1 RECEPTOR AGONISTS FOR USE IN TREATING HYPERGLYCAEMIA” (ATROGI AB, priority 2023, published 2026):

Legend:
[1] = test system: differentiated L6-myotubes; test: Glucose uptake screen (Biological example 1 of WO 2019/053427); type: cell-based; settings: compound at 10 μM, activity relative to isoproterenol at 10 μM, read-out: Biological example 1 of WO 2019/053427 (GU)
Method in brief: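 Uptake was read out as ^3H-2-deoxyglucose (50 nM, 10 min) radioactivity in NaOH lysates. Beforehand, overnight-starved, differentiated L6 myotubes received compound at 1×10^−5 M with ICI-118551 present for 1 h 40 min, followed by fresh agonist for a further 20 min in glucose-free medium.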

[2] = test system: differentiated L6-myotubes; test: cAMP production relative to isoprenaline (Biological example 2 of WO 2019/053427); type: cell-based; settings: 0.25 h, compound at 10 μM, activity relative to isoproterenol at 10 μM
Method in brief: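 Values are cAMP levels relative to isoprenaline at equal concentration (final 1×10^−5 M for both). Stimulation lasted 15 min in differentiated L6 myotubes, using HBSS buffer (pH 7.4) containing 1 mM IBMX, 5 mM HEPES and 1% BSA.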

SMILES | Emax at 10 µM [1] [%] | Emax at 10 µM [2] [%]
CC(=O)N[C@H]1CC[C@H](CNC[C@H](O)c2cccc(F)c2)CC1 [Compound 308, N-[(1R,4r)-4-{[(R)-2-(m-fluorophenyl)-2-hydroxyethylamino]methyl}cyclohexyl]acetamide] | 50 to 75 | < 25
CC(=O)N[C@H]1CC[C@H](CNC[C@H](O)c2cncc(F)c2)CC1 [Compound 309, N-[(1R,4r)-4-{[(R)-2-(5-fluoro-3-pyridyl)-2-hydroxyethylamino]methyl}cyclohexyl]acetamide] | 50 to 75 | < 25
CC(=O)N[C@H]1CC[C@@H](CNC[C@H](O)c2cncc(F)c2)CC1 [Compound 310, N-[(1S,4s)-4-{[(R)-2-(5-fluoro-3-pyridyl)-2-hydroxyethylamino]methyl}cyclohexyl]acetamide] | 25 to 50 | < 25
CS(=O)(=O)N[C@H]1CC[C@H](CNC[C@H](O)c2cccc(F)c2)CC1 [Compound 311, (R)-1-(m-fluorophenyl)-2-({[(1r,4R)-4-(mesylamino)cyclohexyl]methyl}amino)-1-ethanol] | 50 to 75 | < 25
CS(=O)(=O)N[C@H]1CC[C@@H](CNC[C@H](O)c2cccc(F)c2)CC1 [Compound 312, (R)-1-(m-fluorophenyl)-2-({[(1s,4S)-4-(mesylamino)cyclohexyl]methyl}amino)-1-ethanol] | 50 to 75 | < 25
CS(=O)(=O)N[C@H]1CC[C@H](CNC[C@H](O)c2cncc(F)c2)CC1 [Compound 313, (R)-1-(5-fluoro-3-pyridyl)-2-({[(1r,4R)-4-(mesylamino)cyclohexyl]methyl}amino)-1-ethanol] | 25 to 50 | < 25
CS(=O)(=O)N[C@H]1CC[C@@H](CNC[C@H](O)c2cncc(F)c2)CC1 [Compound 314, (R)-1-(5-fluoro-3-pyridyl)-2-({[(1s,4S)-4-(mesylamino)cyclohexyl]methyl}amino)-1-ethanol] | 50 to 75 | < 25
O=C(N[C@H]1CC[C@H](CNC[C@H](O)c2cccc(F)c2)CC1)c1ccccc1 [Compound 315, N-[(1R,4r)-4-{[(R)-2-(m-fluorophenyl)-2-hydroxyethylamino]methyl}cyclohexyl]benzamide] | > 75 | < 25
O=C(N[C@H]1CC[C@@H](CNC[C@H](O)c2cccc(F)c2)CC1)c1ccccc1 [Compound 316, N-[(1S,4s)-4-{[(R)-2-(m-fluorophenyl)-2-hydroxyethylamino]methyl}cyclohexyl]benzamide] | 50 to 75 | < 25
O=C(N[C@H]1CC[C@H](CNC[C@H](O)c2cncc(F)c2)CC1)c1ccccc1 [Compound 317, N-[(1R,4r)-4-{[(R)-2-(5-fluoro-3-pyridyl)-2-hydroxyethylamino]methyl}cyclohexyl]benzamide] | 50 to 75 | < 25
O=C(N[C@H]1CC[C@@H](CNC[C@H](O)c2cncc(F)c2)CC1)c1ccccc1 [Compound 318, N-[(1S,4s)-4-{[(R)-2-(5-fluoro-3-pyridyl)-2-hydroxyethylamino]methyl}cyclohexyl]benzamide] | 50 to 75 | < 25
CC(C)(CC[C@H]1CC[C@H](O)CC1)NC[C@H](O)c1ccccc1F [Compound 319, (R)-2-{1,1-dimethyl-3-[(1r,4S)-4-hydroxycyclohexyl]propylamino}-1-(o-fluorophenyl)-1-ethanol] | > 75 | < 25
CC(C)(CC[C@H]1CC[C@@H](O)CC1)NC[C@H](O)c1ccccc1F [Compound 320, (R)-2-{1,1-dimethyl-3-[(1s,4R)-4-hydroxycyclohexyl]propylamino}-1-(o-fluorophenyl)-1-ethanol] | > 75 | 25 to 50
COC(=O)[C@H]1CC[C@@H](C(C)(C)NC[C@H](O)c2cncc(F)c2)CC1 [Compound 321, (1S,4s)-8-[(R)-2-(5-fluoro-3-pyridyl)-2-hydroxyethylamino]-7-methoxy-p-menthan-7-one] | 50 to 75 | < 25
COC(=O)[C@H]1CC[C@@H](CC(C)(C)NC[C@H](O)c2cncc(F)c2)CC1 [Compound 322, methyl (1S,4s)-4-{2-[(R)-2-(5-fluoro-3-pyridyl)-2-hydroxyethylamino]-2-methylpropyl}cyclohexanecarboxylate] | > 75 | < 25
CC(C)(NC[C@H](O)c1cncc(F)c1)[C@H]1CC[C@@H](C(=O)O)CC1 [Compound 323, (1S,4s)-8-[(R)-2-(5-fluoro-3-pyridyl)-2-hydroxyethylamino]-7-hydroxy-p-menthan-7-one] | 25 to 50 | 50 to 75

SMILES | Emax at 10 µM [1] [%] | Emax at 10 µM [2] [%]
CC(C)(C[C@H]1CC[C@@H](C(=O)O)CC1)NC[C@H](O)c1cncc(F)c1 [Compound 324, (1S,4s)-4-{2-[(R)-2-(5-fluoro-3-pyridyl)-2-hydroxyethylamino]-2-methylpropyl}cyclohexanecarboxylic acid] | 25 to 50 | < 25
CO[C@H]1CC[C@H](C[C@@H]2CC[C@H]([C@@H](O)c3cccc(F)c3)N2)CC1 [Compound 325, (S)-[(2R,5S)-5-{[(1r,4S)-4-methoxycyclohexyl]methyl}-2-pyrrolidinyl](m-fluorophenyl)methanol] | > 75 | < 25
CO[C@H]1CC[C@H](C[C@@H]2CC[C@H]([C@H](O)c3cccc(F)c3)N2)CC1 [Compound 326, (R)-[(2R,5S)-5-{[(1r,4S)-4-methoxycyclohexyl]methyl}-2-pyrrolidinyl](m-fluorophenyl)methanol] | > 75 | < 25
COC(=O)[C@H]1CC[C@@H](CC(C)(C)NC[C@H](O)c2cccc(F)c2)CC1 [Compound 327, methyl (1S,4s)-4-{2-[(R)-2-(m-fluorophenyl)-2-hydroxyethylamino]-2-methylpropyl}cyclohexanecarboxylate] | > 75 | < 25
COC(=O)[C@H]1CC[C@@H](C(C)(C)NC[C@H](O)c2cccc(F)c2)CC1 [Compound 328, (1S,4s)-8-[(R)-2-(m-fluorophenyl)-2-hydroxyethylamino]-7-methoxy-p-menthan-7-one] | > 75 | < 25
COCC12CCC([C@@H](O)c3cccc(F)c3)(CC1)N2 [Compound 329, (S)-(m-fluorophenyl){4-(methoxymethyl)-7-azabicyclo[2.2.1]hept-1-yl}methanol] | 25 to 50 | < 25
COCC12CCC([C@H](O)c3cccc(F)c3)(CC1)N2 [Compound 330, (R)-(m-fluorophenyl){4-(methoxymethyl)-7-azabicyclo[2.2.1]hept-1-yl}methanol] | > 75 | < 25
CC(C)(C[C@H]1CC[C@@H](C(=O)O)CC1)NC[C@H](O)c1cccc(F)c1 [Compound 331, (1S,4s)-4-{2-[(R)-2-(m-fluorophenyl)-2-hydroxyethylamino]-2-methylpropyl}cyclohexanecarboxylic acid] | 25 to 50 | < 25
CO[C@H]1CC[C@H](C[C@@H]2CC[C@H]([C@@H](O)c3cncc(F)c3)N2)CC1 [Compound 332, (S)-[(2R,5S)-5-{[(1r,4S)-4-methoxycyclohexyl]methyl}-2-pyrrolidinyl](5-fluoro-3-pyridyl)methanol] | 25 to 50 | < 25
CO[C@H]1CC[C@H](C[C@@H]2CC[C@H]([C@H](O)c3cncc(F)c3)N2)CC1 [Compound 333, (R)-[(2R,5S)-5-{[(1r,4S)-4-methoxycyclohexyl]methyl}-2-pyrrolidinyl](5-fluoro-3-pyridyl)methanol] | 25 to 50 | < 25
CO[C@H]1CC[C@H](C[C@H]2CC[C@H]([C@@H](O)c3cccc(F)c3)N2)CC1 [Compound 334, (S)-[(2R,5R)-5-{[(1r,4R)-4-methoxycyclohexyl]methyl}-2-pyrrolidinyl](m-fluorophenyl)methanol] | 25 to 50 | < 25
CO[C@H]1CC[C@H](C[C@H]2CC[C@H]([C@H](O)c3cccc(F)c3)N2)CC1 [Compound 335, (R)-[(2R,5R)-5-{[(1r,4R)-4-methoxycyclohexyl]methyl}-2-pyrrolidinyl](m-fluorophenyl)methanol] | > 75 | < 25
CO[C@H]1CC[C@H](C[C@@H]2CC[C@H]([C@@H](O)c3ccccc3F)N2)CC1 [Compound 336] | 25 to 50 | < 25
CO[C@H]1CC[C@H](C[C@@H]2CC[C@H]([C@H](O)c3ccccc3F)N2)CC1 [Compound 337, (R)-[(2R,5S)-5-{[(1r,4S)-4-methoxycyclohexyl]methyl}-2-pyrrolidinyl](o-fluorophenyl)methanol] | > 75 | < 25
CO[C@H]1CC[C@H](C[C@H]2CC[C@H]([C@@H](O)c3ccccc3F)N2)CC1 [Compound 338, (S)-[(2R,5R)-5-{[(1r,4R)-4-methoxycyclohexyl]methyl}-2-pyrrolidinyl](o-fluorophenyl)methanol] | 50 to 75 | < 25
CO[C@H]1CC[C@H](C[C@H]2CC[C@H]([C@H](O)c3ccccc3F)N2)CC1 [Compound 339, (R)-[(2R,5R)-5-{[(1r,4R)-4-methoxycyclohexyl]methyl}-2-pyrrolidinyl](o-fluorophenyl)methanol] | > 75 | 25 to 50
